# Source: article PMC6821791, “Phase I Trial of Pyragrel, a Novel Thromboxane Synthetase Inhibitor, to Evaluate the Safety, Tolerability, and Pharmacokinetics in Healthy Volunteers” (Frontiers in Pharmacology, 2019)
# Tests used:
# [1] = Part I single-ascending-dose plasma pharmacokinetics (HPLC-MS/MS, noncompartmental); type: in vivo, human; details: for AUCINF / AUClast / Cl / Cmax / Tmax / Vz / t1/2: Part I, mean ± SD
# Protocol: (§1) Pyragrel administration regimens are as follows: In the single-escalating-dose study (Part I), a total of 52 subjects are enrolled to receive one of three treatments (pyragrel, ozagrel, or placebo, diluted in 500 Ml normal saline) as a 3-h i.v. infusion. Six dose levels of pyragrel (30, 60,120, 180, 240, 300 mg) were intravenously infused to healthy subjects. Of the 12 subjects each at the first three dose groups (30, 60, and 120 mg), 8 received pyragrel, 2 received ozagrel (80 mg), and 2 received placebo. Eight subjects were assigned as 4/2/2 for pyragrel, ozagrel, and placebo at the 180 mg level. Only four subjects were enrolled at the 240- and 300-mg group each; all received pyragrel. […] In the saline-volume-changed study (Part II), the safety and pharmacokinetics of pyragrel were assessed by decreasing the volume of dilution saline. Four subjects received a single 3 h infusion of pyragrel 240 mg diluted in 250 ml saline instead of the 500 ml used in Part I. Blood samples were collected at multiple time points before and after the initiation of the infusion in Part I and Part II; 15 blood samples were predetermined as follows: before drug administration (time 0), 0.5, 1, 2, 3 (4 samples collected during infusion), 3.25, 3.5, 4, 5, 7, 9, 11, 15, 24, and 48 h (10 samples collected post infusion) after the initiation of the infusion. In the multiple-dose study (Part III), 12 subjects received a single 3 h infusion of 180 mg pyragrel (diluted in 250 ml saline) on Day 1 and Day 6 and twice 3 h infusion of 180 mg pyragrel from Day 2 to 5; 14 blood samples were collected on Day 1 and Day 6 before drug administration (0 h), 0.5, 1, 2, 3, 3.25, 3.5, 4, 5, 7, 9, 11, 15, 24 h after the initiation of the infusion; moreover, 5 ml cubital vein blood was collected each time right before pyragrel infusion on Day 2 to Day 5. In the 3×3 crossover study (Part IV), 12 subjects were randomized to receive each of the three dosing groups (60, 120, or 240 mg) of pyragrel (diluted with 250 ml saline, 3 h infusion) per period, with a 7-day washout period between doses. Sixteen blood samples were collected as follows: before drug administration (0 h), 0.17, 0.35, 0.5, 1, 2, 3, 3.25, 3.5, 4, 5, 7, 9, 11, 15, and 24 h after the initiation of the infusion at each period. In the prolonged infusion study (Part V), four subjects received continuous 24 h infusion of pyragrel 360 mg (diluted in 600 ml saline); 19 blood samples were collected as follows: before drug administration (0 h), 0.25, 0.5, 1, 2, 4, 8, 12, 16, 20 (nine samples collected during administration), 24.25, 24.5, 25, 26, 28, 30, 32, 36, and 48 h after the initiation of the infusion (details shown in Figure 1 ). In all five cohorts, 5 ml of cubital vein blood was collected with a sodium heparin anticoagulant tube and centrifuged at 3000 r·min^-1. Each plasma sample was divided into two aliquots and stored at −20°C until further bioanalysis. […] Briefly, 10 µl of the extract drug from […] was injected onto a Zorbax EcLipse XDB C18 column (2.1 mm × 150 mm, 5 μm) (Agilent, USA) using isocratic elution with a mobile phase composed of methanol, water, and formic acid (65:35:0.1, v/v/v). Determination of the analytes was achieved by tandem-mass spectrometry with positive electrospray ionization.
# (§2) Pharmacokinetic parameters were calculated using the noncompartmental model (NCA module), WinNonlin 6.1 (Pharsight Corporation, Mountain View, CA, USA). Statistical analysis was performed with SPSS 18. The actual dosing and sampling times were utilized in the analysis. Pharmacokinetic parameters were summarized by dose regimens using descriptive statistics, including n, mean, and the coefficient of variation (CV). For Tmax, only n, min, median, and max were reported.
# [2] = Part III multiple-dose study, plasma pharmacokinetics; type: in vivo, human; details: for AUCINF / AUClast / Cl / Cmax / Tmax / Vz / t1/2: metabolite in plasma
# Protocol: as §1, §2
# [3] = Part IV urinary excretion of pyragrel and four metabolites; type: in vivo, human; details: n=12, Mean ± SD
# Protocol: Urine samples were collected after the initiation of pyragrel infusion as follows in Part IV: 0–3 (3 h infusion period), 3–7, 7–11, 11–15, and 15–24 h after pyragrel administration during each period. […] Production of 11-dehydro-thrombxane B2 (11-D-HTXB2) in urine sample was detected by ELISA method.
# [4] = Acute toxicity study in mice; type: in vivo
# [5] = metabolite in plasma after single 3 h i.v. infusion of pyragrel 30 mg, n=8
# [6] = metabolite in plasma after single 3 h i.v. infusion of pyragrel 60 mg, n=8
# [7] = metabolite in plasma after single 3 h i.v. infusion of pyragrel 120 mg, n=8
# [8] = metabolite in plasma after single 3 h i.v. infusion of pyragrel 180 mg, n=4
# [9] = metabolite in plasma after single 3 h i.v. infusion of pyragrel 240 mg, n=4
# [10] = metabolite in plasma after single 3 h i.v. infusion of pyragrel 300 mg, n=4
# [11] = Part III, multiple dose i.v. infusion of 180 mg pyragrel
compound,measurement,setting,value
COc1cc(CCC(=O)O)ccc1OCc1nc(C)c(C)nc1C [BBS],Pharmacokinetic process over the dose range,[1]; 30–300 mg dose range,linear
same,AUCINF,[1]; [5],1016.64 ± 206.08 ng·h/mL
same,AUClast,[1]; [5],1006.02 ± 209.31 ng·h/mL
same,Cl,[1]; [5],30.60 ± 6.23 L/h
same,Cmax,[1]; [5],216.34 ± 48.23 ng/mL
same,Tmax,[1]; [5],3.22 ± 0.36 h
same,Vz,[1]; [5],252.46 ± 113.75 L
same,t1/2,[1]; [5],5.90 ± 2.84 h
same,AUCINF,[1]; [6],1815.58 ± 430.74 ng·h/mL
same,AUClast,[1]; [6],1802.57 ± 421.18 ng·h/mL
same,Cl,[1]; [6],34.63 ± 7.86 L/h
same,Cmax,[1]; [6],389.37 ± 90.87 ng/mL
same,Tmax,[1]; [6],3.25 ± 0.13 h
same,Vz,[1]; [6],377.35 ± 68.16 L
same,t1/2,[1]; [6],7.94 ± 2.48 h
same,AUCINF,[1]; [7],3566.52 ± 1518.01 ng·h/mL
same,AUClast,[1]; [7],3553.23 ± 1512.83 ng·h/mL
same,Cl,[1]; [7],37.91 ± 12.00 L/h
same,Cmax,[1]; [7],753.36 ± 287.7 ng/mL
same,Tmax,[1]; [7],3.31 ± 0.18 h
same,Vz,[1]; [7],369.08 ± 168.49 L
same,t1/2,[1]; [7],6.89 ± 2.29 h
same,AUCINF,[1]; [8],6563.91 ± 1179.31 ng·h/mL
same,AUClast,[1]; [8],6542.7 ± 1174.8 ng·h/mL
same,Cl,[1]; [8],28.22 ± 5.92 L/h
same,Cmax,[1]; [8],1490.69 ± 358.43 ng/mL
same,Tmax,[1]; [8],3.31 ± 0.24 h
same,Vz,[1]; [8],301.81 ± 76.25 L
same,t1/2,[1]; [8],7.41 ± 0.97 h
same,AUCINF,[1]; [9],8910.06 ± 3388.83 ng·h/mL
same,AUClast,[1]; [9],8843.82 ± 3366.35 ng·h/mL
same,Cl,[1]; [9],29.59 ± 9.55 L/h
same,Cmax,[1]; [9],1878.22 ± 681.05 ng/mL
same,Tmax,[1]; [9],3.25 ± 0.20 h
same,Vz,[1]; [9],374.58 ± 119.99 L
same,t1/2,[1]; [9],8.81 ± 0.46 h
same,AUCINF,[1]; [10],10549.78 ± 3061.74 ng·h/mL
same,AUClast,[1]; [10],10466.78 ± 3028.35 ng·h/mL
same,Cl,[1]; [10],30.84 ± 11.23 L/h
same,Cmax,[1]; [10],2139.28 ± 589.06 ng/mL
same,Tmax,[1]; [10],3.19 ± 0.13 h
same,Vz,[1]; [10],345.29 ± 120.76 L
same,t1/2,[1]; [10],7.85 ± 1.92 h
same,AUCINF,[2]; [11],7027.46 ± 3017.92 ng·h/mL
same,AUClast,[2]; [11],6797.36 ± 2919.19 ng·h/mL
same,Cl,[2]; [11],35.50 ± 18.33 L/h
same,Cmax,[2]; [11],1356.91 ± 564.13 ng/mL
same,Tmax,[2]; [11],3.19 ± 0.11 h
same,Vz,[2]; [11],152.37 ± 94.36 L
same,t1/2,[2]; [11],6.07 ± 2.11 h
same,R,"[2]; Part III, metabolite, multiple vs single dose of 180 mg pyragrel, footnote d not given",1.27 ± 0.13
same,AA,"[2]; Part III, metabolite, multiple vs single dose of 180 mg pyragrel, footnote e not given",1.13 ± 0.24
same,AUCINF,[2]; single dose of 180 mg pyragrel,6145.79 ± 2339.86 ng·h/mL
same,AUClast,[2]; single dose of 180 mg pyragrel,6022.22 ± 2291.72 ng·h/mL
same,Cl,[2]; single dose of 180 mg pyragrel,36.52 ± 23.08 L/h
same,Cmax,[2]; single dose of 180 mg pyragrel,1324.23 ± 447.99 ng/mL
same,Tmax,[2]; single dose of 180 mg pyragrel,3.25 ± 0.15 h
same,Vz,[2]; single dose of 180 mg pyragrel,285.61 ± 221.29 L
same,t1/2,[2]; single dose of 180 mg pyragrel,5.31 ± 1.42 h
same,"Accumulation on repeated dose, in words",[2]; repeated dose of pyragrel 180 mg for 6 days (once- or twice-daily dosing),no accumulation
same,Cumulative urinary drug recovery (normalized to pyragrel) within 24 h,[3]; single dose of pyragrel 60 mg,3.90 ± 2.11%
same,Cumulative urinary drug recovery (normalized to pyragrel) within 24 h,[3]; single dose of pyragrel 120 mg,1.93 ± 0.85%
same,Cumulative urinary drug recovery (normalized to pyragrel) within 24 h,[3]; single dose of pyragrel 240 mg,2.75 ± 0.97%
same,LD50,[4],> 929.7 mg/kg
